Reference: US4439426A, “Semisynthetic macrolidic antibiotics, intermediate compounds for their preparation and related pharmaceutical compositions containing them” (priority 1981, dated 1984)
≈ marks a conversion by molar mass, not a printed value. Where “and” joins values, the source holds several entries; their conditions need not be identical. Identical values can stand only once. Like-named read-outs stand apart in the source and are kept apart here.

How the values were obtained:
[1] = Stability in acidic environment at 25° C. (half-life of initial microbiological activity); format: physicochemical; settings: aqueous solution, read-out: t 1/2 (converted)
Protocol: Stability in acidic environnment at 25° C. of the novel
Note: t 1/2 represents the time for reducing to one half the initial powe
of the antibiotic determined by microbiological method through diffusion
on a plate using the test stock Microccocus luteus (Sarcina lutea) ATCC

[2] = system: Bacillus subtilis LRP 25; assay: Bacteriostatic power in solid medium (MIC); format: cell-based; settings: Bacillus subtilis, LRP25, read-out: Minimum inhibiting concentration
Method in brief: (§1)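 Against a mixed bacterial collection (aerobic, anaerobic; Gram-positive, Gram-negative), inhibitory power is quantified by the lowest concentration still halting growth.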

[3] = system: Corynebacterium diphteriae LRP 24; assay: Bacteriostatic power in solid medium (MIC); format: cell-based; settings: Corynebacterium, LRP24, read-out: Minimum inhibiting concentration
Method in brief: as §1

[4] = system: Escherichia coli LRP 50; assay: Bacteriostatic power in solid medium (MIC); format: cell-based; settings: Escherichia coli, LRP50, read-out: Minimum inhibiting concentration
Method in brief: as §1

[5] = system: Fusobacteriumnecrophroum ATCC 27852 LRP 210; assay: Bacteriostatic power in solid medium (MIC); format: cell-based; settings: read-out: Minimum inhibiting concentration
Method in brief: as §1

[6] = system: Haemophilus influenzae ATCC 19418 LRP 213; assay: Bacteriostatic power in solid medium (MIC); format: cell-based; settings: Haemophilus influenzae, ATCC19418, read-out: Minimum inhibiting concentration
Method in brief: as §1

[7] = system: Klelsiella pneumoniae LRP 54; assay: Bacteriostatic power in solid medium (MIC); format: cell-based; settings: read-out: Minimum inhibiting concentration
Method in brief: as §1

[8] = system: Micrococcus luteus ATCC 15957 LRP 193; assay: Bacteriostatic power in solid medium (MIC); format: cell-based; settings: Micrococcus luteus, ATCC15957, read-out: Minimum inhibiting concentration
Method in brief: as §1

[9] = system: Micrococcus luteus ATCC 9341 LRP 6; assay: Bacteriostatic power in solid medium (MIC); format: cell-based; settings: Micrococcus luteus, ATCC9341, read-out: Minimum inhibiting concentration
Method in brief: as §1

[10] = system: Mycoplasma hominis I ATCC 14027 LRP 211; assay: Bacteriostatic power in solid medium (MIC); format: cell-based; settings: Metamycoplasma hominis, ATCC14027, read-out: Minimum inhibiting concentration
Method in brief: as §1

[11] = system: Neisseria gonorrhoeae ATCC 19424 LRP 214; assay: Bacteriostatic power in solid medium (MIC); format: cell-based; settings: Neisseria gonorrhoeae, ATCC19424, read-out: Minimum inhibiting concentration
Method in brief: as §1

[12] = system: Proteus vulgaris ATCC 6380 LRP 13; assay: Bacteriostatic power in solid medium (MIC); format: cell-based; settings: Proteus vulgaris, ATCC6380, read-out: Minimum inhibiting concentration
Method in brief: as §1

[13] = system: Shigella sonnei LRP 5; assay: Bacteriostatic power in solid medium (MIC); format: cell-based; settings: LRP5, read-out: Minimum inhibiting concentration
Method in brief: as §1

[14] = system: Staphylococcus aureus ATCC 6538P LRP 14; assay: Bacteriostatic power in solid medium (MIC); format: cell-based; settings: Staphylococcus aureus, ATCC6538P, read-out: Minimum inhibiting concentration
Method in brief: as §1

[15] = system: Staphylococcus aureus ATCC 6538P LRP 39; assay: Bacteriostatic power in solid medium (MIC); format: cell-based; settings: Staphylococcus aureus, ATCC6538P, read-out: Minimum inhibiting concentration
Method in brief: as §1

[16] = system: Streptococcus faecalis LRP 7; assay: Bacteriostatic power in solid medium (MIC); format: cell-based; settings: Enterococcus faecalis, LRP7, read-out: Minimum inhibiting concentration
Method in brief: as §1

[17] = system: Streptococcus faecalis subsp. zymogenes ATCC 12958 LRP 61; assay: Bacteriostatic power in solid medium (MIC); format: cell-based; settings: Enterococcus faecalis, ATCC12958, read-out: Minimum inhibiting concentration
Method in brief: as §1

[18] = system: Streptococcus pneumoniae ATCC 6303 LRP 35; assay: Bacteriostatic power in solid medium (MIC); format: cell-based; settings: Streptococcus pneumoniae, ATCC6303, read-out: Minimum inhibiting concentration
Method in brief: as §1

[19] = system: Streptococcus pneumoniae ATCC 6303 LRP 53; assay: Bacteriostatic power in solid medium (MIC); format: cell-based; settings: Streptococcus pneumoniae, ATCC6303, read-out: Minimum inhibiting concentration
Method in brief: as §1

[20] = system: Streptococcus pyogenes ATCC 8668 LRP 34; assay: Bacteriostatic power in solid medium (MIC); format: cell-based; settings: Streptococcus pyogenes, ATCC8668, read-out: Minimum inhibiting concentration
Method in brief: as §1

[21] = system: Clostridium perfrigens ATCC 3624 LRP 206; assay: microbe, parasite or virus in culture; format: cell-based; settings: ATCC3624, read-out: Minimum inhibiting concentration
Method in brief: as §1

[22] = system: Salmonella typhy LRP 8; assay: microbe, parasite or virus in culture; format: cell-based; settings: LRP8, solid medium, read-out: Minimum inhibiting concentration
Method in brief: as §1

[23] = system: Corynebacterium diphteriae LRP 24; assay: Bacteriostatic power in liquid medium (MIC); format: cell-based; settings: Corynebacterium, LRP24, read-out: Minimum inhibiting concentration
Method in brief: as §1

[24] = system: Staphylococcus aureus ATCC 6538 P LRP 39; assay: Bacteriostatic power in liquid medium (MIC); format: cell-based; settings: Staphylococcus aureus, ATCC6538, read-out: Minimum inhibiting concentration
Method in brief: as §1

[25] = system: Streptococcus faecalis subs. zymogenes ATCC 12958 LRP 61; assay: Bacteriostatic power in liquid medium (MIC); format: cell-based; settings: Enterococcus faecalis, ATCC12958, read-out: Minimum inhibiting concentration
Method in brief: as §1

[26] = system: Streptococcus pneumoniae ATCC 6303 LRP 35; assay: Bacteriostatic power in liquid medium (MIC); format: cell-based; settings: Streptococcus pneumoniae, ATCC6303, read-out: Minimum inhibiting concentration
Method in brief: as §1

[27] = system: Streptococcus pyogenes ATCC 8668 LRP 34; assay: Bacteriostatic power in liquid medium (MIC); format: cell-based; settings: Streptococcus pyogenes, ATCC8668, read-out: Minimum inhibiting concentration
Method in brief: as §1

[28] = system: Corynebacterium diphteriae LRP 24; assay: Minimum bactericidal concentration (MBC); format: cell-based
Excerpt: (§2) the bacterial power, expressed as the minimum bactericidal power (MBC) against some Gram positive aerobic stocks (table 5).

[29] = system: Staphylococcus aureus ATCC 6538 P LRP 39; assay: Minimum bactericidal concentration (MBC); format: cell-based
Excerpt: as §2

[30] = system: Streptococcus faecalis subs. zymogenes LRP 61; assay: Minimum bactericidal concentration (MBC); format: cell-based
Excerpt: as §2

[31] = system: Streptococcus pneumoniae ATCC 6303 LRP 35; assay: Minimum bactericidal concentration (MBC); format: cell-based
Excerpt: as §2

[32] = system: Streptococcus pyogenes ATCC 8668 LRP 34; assay: Minimum bactericidal concentration (MBC); format: cell-based
Excerpt: as §2

[33] = Serum concentrations in the rat after oral administration; format: in vivo; settings: 100 mg/kg per os
Protocol: administration of 100 mg/kg per os. The values, at the
several sampling times, correspond to mcg of product per ml of serum*.

CC[C@H]1OC(=O)[C@H](C)[C@@H](O[C@H]2C[C@@](C)(OC)[C@@H](O)[C@H](C)O2)[C@H](C)[C@@H](O[C@@H]2O[C@H](C)C[C@H](N(C)C)[C@H]2O)[C@](C)(O)C[C@](C)(F)C(=O)[C@H](C)[C@@H](O)[C@]1(C)O [P-80206, (8S)-8-fluoroerythromycin A]
half-life ([1]; pH 2.0, 25° C.): 9 h | half-life ([1]; pH 3.0, 25° C.): 82.5 h | MIC [2]: 0.049 µg/mL (≈ 0.0652 µM) | MIC [3]: 0.012 µg/mL (≈ 0.016 µM) | MIC [4]: 12.5 µg/mL (≈ 16.6 µM) | MIC [5]: 1.56 µg/mL (≈ 2.07 µM) | MIC [6]: 3.12 µg/mL (≈ 4.15 µM) | MIC [7]: 12.5 µg/mL (≈ 16.6 µM) | MIC [8]: 25 µg/mL (≈ 33.2 µM) | MIC [9]: 0.006 µg/mL (≈ 0.00798 µM) | MIC [10]: 25 µg/mL (≈ 33.2 µM) | MIC [11]: 0.049 µg/mL (≈ 0.0652 µM) | MIC [12]: 25 µg/mL (≈ 33.2 µM) | MIC [13]: 25 µg/mL (≈ 33.2 µM) | MIC [14]: 0.097 µg/mL (≈ 0.129 µM) | MIC [15]: 0.097 µg/mL (≈ 0.129 µM) | MIC [16]: 0.195 µg/mL (≈ 0.259 µM) | MIC [17]: 0.195 µg/mL (≈ 0.259 µM) | MIC [18]: 0.024 µg/mL (≈ 0.0319 µM) | MIC [19]: 0.024 µg/mL (≈ 0.0319 µM) | MIC [20]: 0.012 µg/mL (≈ 0.016 µM) | MIC [21]: 0.78 µg/mL (≈ 1.04 µM) | MIC [22]: 12.5 µg/mL (≈ 16.6 µM) | MIC [23]: 0.012 µg/mL (≈ 0.016 µM) | MIC [24]: 0.195 µg/mL (≈ 0.259 µM) | MIC [25]: 0.39 µg/mL (≈ 0.519 µM) | MIC [26]: 0.049 µg/mL (≈ 0.0652 µM) | MIC [27]: 0.097 µg/mL (≈ 0.129 µM) | MBC/MIC [28]: 8 | MBC ([28]; Corynebacterium, LRP24, read-out: Minimum bactericidal concentration (MBC)): 0.097 µg/mL (≈ 0.129 µM) | MBC/MIC [29]: 16 | MBC ([29]; Staphylococcus aureus, ATCC6538, read-out: Minimum bactericidal concentration (MBC)): 3.12 µg/mL (≈ 4.15 µM) | MBC/MIC [30]: 16 | MBC ([30]; Enterococcus faecalis, read-out: Minimum bactericidal concentration (MBC)): 6.25 µg/mL (≈ 8.31 µM) | MBC/MIC [31]: 4 | MBC ([31]; Streptococcus pneumoniae, ATCC6303, read-out: Minimum bactericidal concentration (MBC)): 0.195 µg/mL (≈ 0.259 µM) | MBC/MIC [32]: 8 | MBC ([32]; Streptococcus pyogenes, ATCC8668, read-out: Minimum bactericidal concentration (MBC)): 0.78 µg/mL (≈ 1.04 µM) | Serum concentration, individual rat ([33]; 0.5 hours, 30 min): 0.078 mcg of product per ml of serum and 0.198 mcg of product per ml of serum and 0.630 mcg of product per ml of serum and 0.487 mcg of product per ml of serum and 1.105 mcg of product per ml of serum and 1.333 mcg of product per ml of serum | Serum concentration, individual rat ([33]; 1 hour, 60 min): 8.505 mcg of product per ml of serum and 0.880 mcg of product per ml of serum and 1.273 mcg of product per ml of serum and 1.251 mcg of product per ml of serum and 1.714 mcg of product per ml of serum and 0.531 mcg of product per ml of serum | Serum concentration, individual rat ([33]; 2 hours, 120 min): 3.712 mcg of product per ml of serum and 6.516 mcg of product per ml of serum and 3.510 mcg of product per ml of serum and 6.907 mcg of product per ml of serum and 6.601 mcg of product per ml of serum and 7.195 mcg of product per ml of serum | Serum concentration, individual rat ([33]; 4 hours, 240 min): 1.792 mcg of product per ml of serum and 2.134 mcg of product per ml of serum and 1.270 mcg of product per ml of serum and 2.817 mcg of product per ml of serum and 2.362 mcg of product per ml of serum and 2.115 mcg of product per ml of serum | Serum concentration, individual rat ([33]; 6 hours, 360 min): 0.867 mcg of product per ml of serum and 0.393 mcg of product per ml of serum and 1.192 mcg of product per ml of serum and 1.792 mcg of product per ml of serum and 1.620 mcg of product per ml of serum and 1.147 mcg of product per ml of serum | concentration at 0.5 h ([33]; rat, in vivo, po, 100 mg/kg, 0.5 hours, read-out: Serum concentration, average): 638 ng/mL | concentration at 1 h ([33]; rat, in vivo, po, 100 mg/kg, 1 hour, read-out: Serum concentration, average): 2360 ng/mL | concentration at 2 h ([33]; rat, in vivo, po, 100 mg/kg, 2 hours): 5740 ng/mL | concentration at 4 h ([33]; rat, in vivo, po, 100 mg/kg, 4 hours, read-out: Serum concentration, average): 2080 ng/mL | concentration at 6 h ([33]; rat, in vivo, po, 100 mg/kg, 6 hours, read-out: Serum concentration, average): 1170 ng/mL
